The record followed here is patent publication EP0001978A1, “A derivative of thiazolidine-4-carboxylic acid, method for the preparation and pharmaceutical compositions comprising the compound” (Santen Pharmaceutical Co., Ltd, priority 1977, dated 1979).

Data set [1] addresses T1, angiotensin I-converting enzyme (Cavia porcellus, UniProt H0UWL7).
T1 construct: Preparation of isolated guinea-pig ileum was made and suspended in the organ bath; from tissue; host or cells: isolated guinea-pig ileum
T1 sequence (H0UWL7 33-1302): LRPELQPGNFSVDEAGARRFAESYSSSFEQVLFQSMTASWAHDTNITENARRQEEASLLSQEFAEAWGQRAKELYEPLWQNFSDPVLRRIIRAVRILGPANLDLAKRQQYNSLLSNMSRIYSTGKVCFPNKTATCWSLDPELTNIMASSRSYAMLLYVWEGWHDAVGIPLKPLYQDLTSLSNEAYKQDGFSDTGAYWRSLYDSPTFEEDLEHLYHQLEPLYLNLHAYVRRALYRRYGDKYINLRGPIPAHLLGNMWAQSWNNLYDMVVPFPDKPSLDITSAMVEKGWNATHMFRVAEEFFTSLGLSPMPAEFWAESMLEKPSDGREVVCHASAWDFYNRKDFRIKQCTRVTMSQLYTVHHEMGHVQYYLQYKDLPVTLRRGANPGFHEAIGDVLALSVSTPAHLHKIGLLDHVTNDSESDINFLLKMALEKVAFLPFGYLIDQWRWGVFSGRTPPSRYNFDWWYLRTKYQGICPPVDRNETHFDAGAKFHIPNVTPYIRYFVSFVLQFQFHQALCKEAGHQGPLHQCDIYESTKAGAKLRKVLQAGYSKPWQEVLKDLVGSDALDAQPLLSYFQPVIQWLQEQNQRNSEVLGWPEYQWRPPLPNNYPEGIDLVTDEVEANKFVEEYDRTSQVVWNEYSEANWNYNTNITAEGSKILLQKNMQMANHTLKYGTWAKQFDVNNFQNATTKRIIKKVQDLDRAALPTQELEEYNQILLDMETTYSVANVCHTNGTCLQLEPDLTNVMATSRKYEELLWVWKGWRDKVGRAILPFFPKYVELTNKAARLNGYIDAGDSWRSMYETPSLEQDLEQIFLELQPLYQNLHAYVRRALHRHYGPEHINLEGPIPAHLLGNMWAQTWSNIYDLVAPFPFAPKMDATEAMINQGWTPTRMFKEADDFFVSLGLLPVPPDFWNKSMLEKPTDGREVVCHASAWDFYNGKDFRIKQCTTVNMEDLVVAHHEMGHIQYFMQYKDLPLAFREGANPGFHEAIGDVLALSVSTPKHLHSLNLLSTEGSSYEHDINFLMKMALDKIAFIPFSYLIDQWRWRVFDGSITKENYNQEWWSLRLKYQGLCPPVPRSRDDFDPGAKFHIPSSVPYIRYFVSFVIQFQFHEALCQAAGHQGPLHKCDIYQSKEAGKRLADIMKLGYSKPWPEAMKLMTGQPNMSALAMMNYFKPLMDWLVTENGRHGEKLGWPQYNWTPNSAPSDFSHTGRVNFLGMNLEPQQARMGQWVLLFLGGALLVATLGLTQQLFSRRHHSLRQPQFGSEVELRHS
As to the kind of experiment: Bioassay: contractile response of isolated guinea-pig ileum to angiotensin I. It counts as cell-based. The conditions noted are these: angiotensin I 0.125µg/ml, compound added 5 minutes before; for inhibition at 1 µM: final concentration 10^-6 M. How it is done:
In the present study, we adopted the bioassay for contractile response of iselated guinea-pig ileum to angiotensin I.
(§1) Measurement of inhibitory activity of angiotensin I-converting enzyme Preparation of isolated guinea-pig ileum was made and suspended in the organ bath containing 20ml of Tyrode's solution gassed 95% 02 + 5% CO2 at 30°C. The contraction induced by angiotensin I (0.125µg/ml) given at intervals of 10 minutes was recorded on a recticerder (Nihon Koden) for 90 seconds using FD pick up (ST-IT-H, Nihon Koden) .
(§2) The test compounds were added to the bath 5 minutes before the addition of angiotensin I.
The inhibitory activity of angiotensin I-converting enzyme was calculated by the following formula: [formula] • A: Contractile intensity of angiotensin I before addition of the compound • B: Contractile intensity of angiotensin I after addition of the compound

Data set [2] concerns the target T2, kininase II (Cavia porcellus, UniProt H0UWL7).
T2 construct: Preparation of isolated guinea-pig ileum was made and suspended in the organ bath; from tissue; host or cells: isolated guinea-pig ileum
T2 sequence (H0UWL7 33-1302): T1 sequence (H0UWL7 33-1302)
The experiment in a line: Augmentation of contractile response of isolated guinea-pig ileum to bradykinin. The format is cell-based. The method, then:
as §1, §2
(§3) The influence of the compounds on the contractile response of isolated guinea-pig ileum to angiotensin II was examined in the same manner as above. Further, augmentation of the contractile response to bradykinin by the test compounds was studied by the above-mentioned method from the fact that kininase II which destroys bradykinin is thought to be identical with angiotensin I-converting enzyme.

Data set [3] deals with angiotensin II. The experiment in a line: Contractile response of isolated guinea-pig ileum to angiotensin II. The format is cell-based. The following applies: Cavia porcellus, final concentration 10^-5 M. The method, then:
as §1, §2, §3

For data set [4], the system named is male ddy-SLC strain rats. As to the kind of experiment: Acute toxicity test (Miller and Tainter method). The format is in vivo. The conditions noted are these: oral, subcutaneous or intravenous; 30% suspension or 30% solution (pH 7.0); result in words. The method, then:
Acute toxicity of the compound of this invention, (4R)-3-[(2S)-3-mercapto-2-methylpropanoyl]-4-thiazolidinecarboxylic acid, is shown in Table 3.
The male ddy-SLC strain rats (5 weeks of age, weighing […]) were placed in a breeding room of constant temperature and humidity (24+1°C, 55+5%) and fed freely pellet diet (CE-2, Clea Japan Inc.) and water for a week. The rats showing the normal growth were selected for the experiment.
30% suspension or 30% solution (pH 7.0) was administered orally, subcutaneously or intravenously and the toxicity was calculated by the Miller and Tainter method.

As to `C[C@@H](CS)C(=O)N1CSC[C@H]1C(=O)O` [Compound B, (4R)-3-[(2R)-3-mercapto-2-methylpropanoyl]-4-thiazolidinecarboxylic acid, reference compound], the inhibition (as a rule, the share of the control response that was lost under treatment) at 10 µM stood at 59.3% in data set [1] (final concentration 10^-5 M) and 0% in data set [3]. Moreover, in data set [1], the inhibition at 1 µM was 24.7%. The “Augmentation to BK (%)” value is 78.3% in data set [2] (final concentration 10^-7 M) and 16.8% in data set [2] (final concentration 10^-8 M).
For the compound `C[C@H](CS)C(=O)N1CSC[C@H]1C(=O)O` [Compound A, (4R)-3-[(2S)-3-mercapto-2-methylpropanoyl]-4-thiazolidinecarboxylic acid], the inhibition at 1 µM in data set [1] was 72.6%. The compound further displayed an inhibition at 0.1 µM in data set [1] (final concentration 10^-7 M) of 38.1%. Further, the “Augmentation to BK (%)” value is given as 125.3% in data set [2] (final concentration 10^-7 M), 60.4% in data set [2] (final concentration 10^-8 M) and 22.1% in data set [2] (final concentration 10^-9 M). The compound also had an inhibition at 10 µM in data set [3] of 0%. For the same compound, the Acute toxicity entry in data set [4] was “lower toxicity”.
